{
  "source": "paper PMC8206213",
  "about": "“An L-2-hydroxyglutarate biosensor based on specific transcriptional regulator LhgR” (Nature Communications, 2021)",
  "format_in_all_cases": "binding, Pseudomonas putida W619",
  "key": {"[1]": {"tested_on": "LHGFR0N7C", "assay": "Influence of other compounds on the response of purified LHGFR0N7C to L-2-HG", "conditions": "Suppl. Fig. 9b, three replicates", "experimental": "(§1) Purified L-2-HG biosensors and different compounds were diluted by 50 mM Tris-HCl buffer (pH 7.4), mixed together in a black 96-well plate at a volume ratio of 3:1, and the fluorescence intensities were measured using an EnSight microplate reader (PerkinElmer, USA) with excitation at 430 nm, emission at 485 nm (mTFP) and 528 nm (Venus). […] The [L-2-HG], Kd, and p refer to the L-2-HG concentration, apparent dissociation constant, and Hill slope, respectively. Emission spectra were recorded at 430 nm excitation, in steps of 2 nm. Excitation spectra were recorded using emission at 550 nm, excitation from 380 to 535 nm in steps of 2 nm."}, "[2]": {"tested_on": "LHGFR0N3C", "assay": "Influence of other compounds on the response of purified LHGFR0N3C to L-2-HG", "conditions": "Suppl. Fig. 9a, three replicates", "experimental": "as §1"}, "[3]": {"tested_on": "LHGFR0N7C", "assay": "Specificity of purified LHGFR0N7C, emission ratio with 240 μM compounds", "conditions": "240 μM compound", "experimental": "as §1"}, "[4]": {"tested_on": "LHGFR0N3C", "assay": "Specificity of purified LHGFR0N3C, emission ratio with 240 μM compounds", "conditions": "240 μM compound", "experimental": "as §1"}, "[5]": {"conditions": "L-2-HG alone or with the compound"}},
  "note": "“And” between values parts separate entries of the source, which are not always exact repeats. Equal entries are not always repeated.",
  "data": [
    {"smiles": "Nc1ncnc2c1ncn2[C@@H]1O[C@H](COP(=O)(O)OP(=O)(O)OP(=O)(O)O)[C@@H](O)[C@H]1O", "note": "[ATP]", "values": [
      {"measurement": "Emission ratio", "setting": "[1]; 50 μM ATP", "result": "2.546 and 2.581 and 2.59"},
      {"measurement": "Emission ratio", "setting": "[1]; 100 μM ATP", "result": "2.59 and 2.574 and 2.618"},
      {"measurement": "Emission ratio", "setting": "[1]; 500 μM ATP", "result": "2.6191 and 2.584 and 2.589"},
      {"measurement": "Emission ratio", "setting": "[1]; 1 mM ATP", "result": "2.6148 and 2.611 (2×)"},
      {"measurement": "Emission ratio", "setting": "[1]; 5 mM ATP", "result": "2.6574 and 2.624 and 2.63"},
      {"measurement": "Emission ratio", "setting": "[2]; 50 μM ATP", "result": "2.0763 and 2.03 and 2.053"},
      {"measurement": "Emission ratio", "setting": "[2]; 100 μM ATP", "result": "2.022 and 2.017 and 2.045"},
      {"measurement": "Emission ratio", "setting": "[2]; 500 μM ATP", "result": "2.063 (2×) and 2.059"},
      {"measurement": "Emission ratio", "setting": "[2]; 1 mM ATP", "result": "2.142 and 2.082 and 2.1362"},
      {"measurement": "Emission ratio", "setting": "[2]; 5 mM ATP", "result": "2.1045 and 2.1074 and 2.154"}
    ]},
    {"smiles": "O=C(O)/C=C(/CC(=O)O)C(=O)O", "note": "[Cis-aconitate, cis-aconitate]", "values": [
      {"measurement": "Emission ratio", "setting": "[3]", "result": "1.7035 and 1.722 and 1.738"},
      {"measurement": "Induction of emission ratio changes", "setting": "[3]", "result": "None"},
      {"measurement": "Emission ratio", "setting": "[1]; [5]", "result": "2.594 and 2.591 and 2.61"},
      {"measurement": "Emission ratio", "setting": "[4]", "result": "1.358 and 1.383 and 1.3936"},
      {"measurement": "Induction of emission ratio changes", "setting": "[4]", "result": "None"},
      {"measurement": "Emission ratio", "setting": "[2]; [5]", "result": "2.04 and 2.059 and 2.056"}
    ]},
    {"smiles": "O=C(O)CC(O)(CC(=O)O)C(=O)O", "note": "[Citrate]", "values": [
      {"measurement": "Emission ratio", "setting": "[3]", "result": "1.665 and 1.672 and 1.697"},
      {"measurement": "Induction of emission ratio changes", "setting": "[3]", "result": "None"},
      {"measurement": "Emission ratio", "setting": "[1]; [5]", "result": "2.561 and 2.588 and 2.595"},
      {"measurement": "Emission ratio", "setting": "[4]", "result": "1.344 and 1.397 and 1.391"},
      {"measurement": "Induction of emission ratio changes", "setting": "[4]", "result": "None"},
      {"measurement": "Emission ratio", "setting": "[2]; [5]", "result": "1.986 and 2.033 and 2.109"}
    ]},
    {"smiles": "C[C@@H](O)C(=O)O", "note": "[D-Lactate, D-lactate]", "values": [
      {"measurement": "Emission ratio", "setting": "[3]", "result": "1.7153 and 1.693 and 1.686"},
      {"measurement": "Induction of emission ratio changes", "setting": "[3]", "result": "None"},
      {"measurement": "Emission ratio", "setting": "[1]; [5]", "result": "2.595 and 2.609 and 2.633"},
      {"measurement": "Emission ratio", "setting": "[4]", "result": 1.395},
      {"measurement": "Induction of emission ratio changes", "setting": "[4]", "result": "None"},
      {"measurement": "Emission ratio", "setting": "[2]; [5]", "result": "2.084 and 2.089 and 2.108"}
    ]},
    {"smiles": "O=C(O)/C=C/C(=O)O", "note": "[Fumarate]", "values": [
      {"measurement": "Emission ratio", "setting": "[3]", "result": "1.695 and 1.71 and 1.714"},
      {"measurement": "Induction of emission ratio changes", "setting": "[3]", "result": "None"},
      {"measurement": "Emission ratio", "setting": "[1]; [5]", "result": "2.613 and 2.5931 and 2.59"},
      {"measurement": "Emission ratio", "setting": "[4]", "result": "1.378 and 1.374 and 1.399"},
      {"measurement": "Induction of emission ratio changes", "setting": "[4]", "result": "None"},
      {"measurement": "Emission ratio", "setting": "[2]; [5]", "result": "1.9538 and 2.042 and 2.049"}
    ]},
    {"smiles": "C[C@H](O)C(=O)O", "note": "[L-Lactate, L-lactate]", "values": [
      {"measurement": "Emission ratio", "setting": "[3]", "result": "1.748 and 1.739 and 1.741"},
      {"measurement": "Induction of emission ratio changes", "setting": "[3]", "result": "None"},
      {"measurement": "Emission ratio", "setting": "[1]; [5]", "result": "2.6205 and 2.619 and 2.644"},
      {"measurement": "Emission ratio", "setting": "[4]", "result": "1.397 and 1.412 and 1.41"},
      {"measurement": "Induction of emission ratio changes", "setting": "[4]", "result": "None"},
      {"measurement": "Emission ratio", "setting": "[2]; [5]", "result": "2.088 and 2.079 and 2.04"}
    ]},
    {"smiles": "O=C(O)C[C@H](O)C(=O)O", "note": "[L-Malate, L-malate]", "values": [
      {"measurement": "Emission ratio", "setting": "[3]", "result": "1.654 and 1.687 and 1.723"},
      {"measurement": "Induction of emission ratio changes", "setting": "[3]", "result": "None"},
      {"measurement": "Emission ratio", "setting": "[1]; [5]", "result": "2.598 and 2.599 and 2.61"},
      {"measurement": "Emission ratio", "setting": "[4]", "result": "1.354 and 1.373 (2×)"},
      {"measurement": "Induction of emission ratio changes", "setting": "[4]", "result": "None"},
      {"measurement": "Emission ratio", "setting": "[2]; [5]", "result": "2.062 and 2.063 and 2.08"}
    ]},
    {"smiles": "O=C(O)CC(=O)C(=O)O", "note": "[Oxaloacetate]", "values": [
      {"measurement": "Emission ratio", "setting": "[3]", "result": "1.671 (2×) and 1.68"},
      {"measurement": "Induction of emission ratio changes", "setting": "[3]", "result": "None"},
      {"measurement": "Emission ratio", "setting": "[1]; [5]", "result": "2.5106 and 2.58 and 2.608"},
      {"measurement": "Emission ratio", "setting": "[4]", "result": "1.3879 and 1.4027 and 1.379"},
      {"measurement": "Induction of emission ratio changes", "setting": "[4]", "result": "None"},
      {"measurement": "Emission ratio", "setting": "[2]; [5]", "result": "2.024 and 2.069 and 2.088"}
    ]},
    {"smiles": "CC(=O)C(=O)O", "note": "[Pyruvate, pyruvate]", "values": [
      {"measurement": "Emission ratio", "setting": "[3]", "result": "1.667 and 1.6731 and 1.709"},
      {"measurement": "Induction of emission ratio changes", "setting": "[3]", "result": "None"},
      {"measurement": "Emission ratio", "setting": "[1]; [5]", "result": "2.56 and 2.596 and 2.595"},
      {"measurement": "Emission ratio", "setting": "[4]", "result": "1.366 and 1.361 and 1.386"},
      {"measurement": "Induction of emission ratio changes", "setting": "[4]", "result": "None"},
      {"measurement": "Emission ratio", "setting": "[2]; [5]", "result": "2.0125 and 2.04 and 2.083"}
    ]}
  ]
}
